According to PubChem BioAssay AID1259411 (Chemical Carcinogenesis Research Information System (CCRIS), 2018):
The source made the active and inactive calls. No rule for the calls is given here.

Tested on: rodent carcinogenicity bioassays, tumor incidence
Assay: CCRIS carcinogenicity studies
Details: Dose: 0
How it was run: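 Archive of carcinogenicity, mutagenicity, tumor promotion and tumor inhibition results drawn from journals, NCI reports and other sources, expert-reviewed; covers 1985-2011 and is no longer updated.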

Measured: carcinogen call

C=CC#N
active: Species: RAT, Strain/Sex: SPRAGUE-DAWLEY/FEMALE, Route: INHALATION, 60 PPM 4 HR/D 5 D/WK FOR 7 WK THEN 7 HR/D 5 D/WK FOR 97 WK ADMINISTRATION STARTED WITH EMBRYOS ON DAY 12 OF GESTATION, Tumor Site: Type of Lesion: MAMMARY GLAND: TUMORS, LIVER: ANGIOSARCOMA, BRAIN: GLIOMA, Tumor Site: Type of Lesion: MAMMARY GLAND: TUMORS, LIVER: ANGIOSARCOMA, BRAIN: GLIOMA active; positive | Species: RAT, Strain/Sex: SPRAGUE-DAWLEY/FEMALE, Route: ORAL, 1, 100 PPM IN DRINKING WATER FOR 22 MO (STUDY DURATION: 20 MO), 1, 100 PPM IN DRINKING WATER FOR 22 MO (STUDY DURATION: 20 MO), Tumor Site: Type of Lesion: BRAIN: ASTROCYTOMA, ZYMBAL'S GLAND/EAR CANAL: ADENOMA OR CARCINOMA, FORESTOMACH: SQUAMOUS CELL PAPILLOMA/PAPILLOMA OR SQ, Tumor Site: Type of Lesion: BRAIN: ASTROCYTOMA, ZYMBAL'S GLAND/EAR CANAL: ADENOMA OR CARCINOMA, FORESTOMACH: SQUAMOUS CELL PAPILLOMA/PAPILLOMA OR SQ active; positive | Species: RAT, Strain/Sex: SPRAGUE-DAWLEY/MALE, Route: GAVAGE, 0.1, 10 MG/KG/D 7D/WK FOR 20 MO (STUDY DURATION: 20 MO), 0.1, 10 MG/KG/D 7D/WK FOR 20 MO (STUDY DURATION: 20 MO), Tumor Site: Type of Lesion: BRAIN: ASTROCYTOMA, ZYMBAL'S GLAND/EAR CANAL: CARCINOMA, FORESTOMACH: SQUAMOUS CELL PAPILLOMA/PAPILLOMA, SQUAMOUS CELL C, Tumor Site: Type of Lesion: BRAIN: ASTROCYTOMA, ZYMBAL'S GLAND/EAR CANAL: CARCINOMA, FORESTOMACH: SQUAMOUS CELL PAPILLOMA/PAPILLOMA, SQUAMOUS CELL C active; positive | Species: RAT, Strain/Sex: SPRAGUE-DAWLEY/MALE, Route: INHALATION, 60 PPM 4 HR/D 5 D/WK FOR 7 WK THEN 7 HR/D 5 D/WK FOR 97 WK ADMINISTRATION STARTED WITH EMBRYOS ON DAY 12 OF GESTATION, Tumor Site: Type of Lesion: ZYMBAL GLAND: CARCINOMA, LIVER: HEPATOMA, BRAIN: GLIOMA, Tumor Site: Type of Lesion: ZYMBAL GLAND: CARCINOMA, LIVER: HEPATOMA, BRAIN: GLIOMA active; positive | Species: RAT, Strain/Sex: SPRAGUE-DAWLEY/MALE, Route: ORAL, 1, 100 PPM IN DRINKING WATER FOR 22 MO (STUDY DURATION: 20 MO), 1, 100 PPM IN DRINKING WATER FOR 22 MO (STUDY DURATION: 20 MO), Tumor Site: Type of Lesion: BRAIN: ASTROCYTOMA, ZYMBAL'S GLAND/EAR CANAL: ADENOMA OR CARCINOMA, FORESTOMACH: SQUAMOUS CELL PAPILLOMA/PAPILLOMA OR SQ, Tumor Site: Type of Lesion: BRAIN: ASTROCYTOMA, ZYMBAL'S GLAND/EAR CANAL: ADENOMA OR CARCINOMA, FORESTOMACH: SQUAMOUS CELL PAPILLOMA/PAPILLOMA OR SQ active; positive | Species: RAT, Strain/Sex: SPRAGUE-DAWLEY/MALE, Route: ORAL, 20, 100, 500 PPM IN DRINKING WATER FOR DURATION OF STUDY (STUDY DURATION: 2 YR), 20, 100, 500 PPM IN DRINKING WATER FOR DURATION OF STUDY (STUDY DURATION: 2 YR), Tumor Site: Type of Lesion: ZYMBAL'S GLAND: TUMOR active; positive | Species: Rat, Strain/Sex: Sprague Dawley/Female (80/group, Controls; 48/group, Experimental), Route: Oral, 35, 100, 300 ppm (0; 4.4; 10.8; 25.0 mg/kg) in drinking water for 2 yr, 35, 100, 300 ppm (0; 4.4; 10.8; 25.0 mg/kg) in drinking water for 2 yr, Tumor Site: Type of Lesion: Nervous system (brain and spinal cord): Combined focal or multifocal glial cell proliferation and/or astrocytoma (1/80 active; positive | Species: Rat, Strain/Sex: Sprague Dawley/Male (80/group, Controls; 48/group, Experimental), Route: Oral, 35, 100, 300 ppm (0; 3.4; 8.5; 21.3 mg/kg in drinking water for 2 yr), 35, 100, 300 ppm (0; 3.4; 8.5; 21.3 mg/kg in drinking water for 2 yr), Tumor Site: Type of Lesion: Nervous system (brain and spinal cord): Combined focal or multifocal glial cell proliferation and/or astrocytoma (1/80 active; positive
inactive: Species: RAT, Strain/Sex: SPRAGUE-DAWLEY/FEMALE, Route: GAVAGE, 5 MG/KG IN OLIVE OIL 1/D 3 D/WK FOR 52 WK (STUDY DURATION: LIFETIME) inactive; negative | Species: RAT, Strain/Sex: SPRAGUE-DAWLEY/FEMALE, Route: INHALATION, 60 PPM 4 HR/D 5 D/WK FOR 7 WK THEN 7 HR/D 5 D/WK FOR 8 WK ADMINISTRATION STARTED WITH EMBRYOS ON 12TH DAY OF GESTATIO inactive; negative | Species: RAT, Strain/Sex: SPRAGUE-DAWLEY/MALE, Route: GAVAGE, 5 MG/KG BW IN OLIVE OIL 3/WK FOR 52 WK (STUDY DURATION: LIFETIME), Tumor Site: Type of Lesion: [BRAIN WAS ONLY SITE EVALUATED] inactive; negative | Species: RAT, Strain/Sex: SPRAGUE-DAWLEY/MALE, Route: GAVAGE, 5 MG/KG IN OLIVE OIL 1/D 3 D/WK FOR 52 WK (STUDY DURATION: LIFETIME) inactive; negative | Species: RAT, Strain/Sex: SPRAGUE-DAWLEY/MALE, Route: INHALATION, 60 PPM 4 HR/D 5 D/WK FOR 7 WK THEN 7 HR/D 5 D/WK FOR 8 WK ADMINISTRATION STARTED WITH EMBRYOS ON 12TH DAY OF GESTATIO inactive; negative
